Legend:
[1] = Release experiments (hydrolysis / payload release) in acidic acetate buffer, HPLC; assay type: physicochemical; conditions: for peak intensity of the conjugate at pH 4.5: pH 4.5, HPLC
Method: (§1) General procedure for release experiments. A 10 mM stock-solution of compounds 8a, 8b, 10, 15, 17, and 18 was prepared in DMSO and diluted in the corresponding buffers to obtain a 1 mM solution. In the case of compound 16, the 10 mM stock-solution was diluted in the corresponding buffer and additionally diluted with DMSO to obtain a final 0.67 mM solution in buffer/H2O/DMSO. For analysis at pH 7.4 and 6, phosphate buffers of 0.1 M were used (KH2PO4/K2HPO4). For pH 5.5 and 4.5, acetate buffer of 0.1 M was used (CH3COONa/CH3COOH). All compounds were mixed with the buffers at 25 °C and further incubated at 37 °C. HPLC analyses were carried out following the method reported in SI every 1–3 h up to 6 h and every 6 h up to 48 h.

[2] = Stability in solution at pH 7.4 (PBS / phosphate buffer), HPLC; assay type: physicochemical; conditions: for stability in solution at pH 7.4: PBS solution, pH 7.4, 48 h; for pH 7.4, percentage of unmodified compound / pH 7.4, t1/2: pH 7.4 solution; for pH 7.4, percentage of unmodified compound: after 48 h of incubation; for pH 7.4, t1/2: time before half of the drug is degraded
Method: as §1

[3] = Stability in plasma experiments (pooled human plasma, UV/LC-MS); assay type: in vitro ADME; conditions: for Plasma, percentage of unmodified compound: 37 °C, after 24 h of incubation; for half-life at 100 µM: pooled human plasma, pH 7.4, 37 °C, time before half of the drug is degraded, read-out: Plasma, t1/2
Method: Stability in plasma experiments. Pooled human plasma, purchased from Merck (0.9 mL, […]); hepes buffer (1.0 mL, 25 mM, NaCl 140 mM, pH 7.4); and tested compound dissolved in DMSO (100 µL, 2.0 mM) were mixed in a test tube incubated at 37 °C under continuous mechanical agitation. At set time points (0.0, 0.25, 0.50, 1.0, 3.0, 5.0, 8.0, and 24.0 h), samples of 100 µL were taken, mixed with 400 µL of cold acetonitrile, and centrifuged at 5000 rpm for 15 min. The supernatant was collected and analysed by UV/LC-MS to monitor the amount of unmodified compound. LC analyses of plasma stability tests were performed using Agilent 1100 LC/MSD VL system (G1946C) (Agilent Technologies, Palo Alto, CA, USA) constituting a vacuum solvent degassing unit, a binary high-pressure gradient pump, an 1100 series UV detector, and an 1100 MSD model VL benchtop mass spectrometer. A MSD single-quadrupole instrument was equipped with the orthogonal spray API-ES (Agilent Technologies, Palo Alto, CA, USA). The pressure of the nebulizing gas and the flow of the drying gas (nitrogen used for both) were set at 40 psi and 9 L/min, respectively. The capillary voltage, fragmentation voltage, and vaporization temperature were 3000 V, 10 V, and 350 °C, respectively. MSD was used in the positive and negative ion mode. Spectra were acquired over the scan range m/z 100–2000 using a step size of 0.1. Chromatographic analyses were performed using a Phenomenex Kinetex EVO C18-100Å (150 × 4.6 mm, 5 μm particle size) at room temperature, at a flow rate of 0.6 mL/min, injection volume of 10 μL, operating with a gradient elution of A: water (H2O) and B: acetonitrile (ACN). Both solvents were acidified with 0.1% v/v of formic acid. UV detection was monitored at 254 nm. The analysis started with 0% of B, then B was increased to 80% (from t = 0 to t = 20 min), then kept at 80% (from t = 20 to t = 25 min), and finally returned to 0% of eluent B in 5.0 min.

Stability test in water = assay type: physicochemical; conditions: for H2O, percentage of unmodified compound: after 48 h of incubation; for half-life: time before half of the drug is degraded, read-out: H2O, t1/2
Method: as §1

Compound: C#CCOc1cc(COC(=O)N(C[C@@H]2CN(c3ccc(N4CCOCC4)c(F)c3)C(=O)O2)C(C)=O)ccc1OCOCCOC [Compound 8b, {[3-(3-Fluoro-4-morpholinophenyl)-2-oxo-1,3-oxazolidin-5-yl]methyl}acetylamino-{4-[(2-methoxyethoxy)methoxy]-3-(2-propynyloxy)-phenyl}methylformylate]
- peak intensity of the conjugate at pH 4.5 [1]: decreased
- stability in solution at pH 7.4 [2]: stable

Compound: C#CCOc1cc(COC(=O)N(C[C@H]2CN(c3ccc(N4CCOCC4)c(F)c3)C(=O)O2)C(C)=O)ccc1OCOC [Compound 8a, 4-(Methoxymethoxy)-3-(prop-2-yn-1-yloxy)benzyl (R)-acetyl((3-(3-fluoro-4-morpholino-phenyl)-2-oxooxazolidin-5-yl)methyl)carbamate]
- peak intensity of the conjugate at pH 4.5 [1]: decreased
- stability in solution at pH 7.4 [2]: stable

Compound: C#CCOc1cc(COC(=O)NS(=O)(=O)c2ccc(C)cc2)cc2c1OC(OCC)O2 (stereo not shown) [Compound 18, (2-Ethoxy-7-(prop-2-yn-1-yloxy)benzo[d][1,3]dioxol-5-yl)methyl tosylcarbamate]
- drug released at pH 5.5 after 48 h ([1]; pH 5.5, after 48 h): no more than 80%
- rate of release at pH 5.5 (qualitative) ([1]; pH 5.5, compared with the other derivatives): faster
- Plasma, percentage of unmodified compound [3]: 84%
- half-life at 100 µM [3]: > 24 h
- H2O, percentage of unmodified compound (Stability test in water): 99%
- half-life (Stability test in water): > 48 h
- pH 7.4, percentage of unmodified compound [2]: 92%
- pH 7.4, t1/2 [2]: > 48 h

Compound: C#CCOc1cc(COC(=O)N(C)C(=O)c2ccc(N3C(=S)N(c4ccc(C#N)c(C(F)(F)F)c4)C(=O)C3(C)C)cc2F)ccc1OCOC [Compound 10, 4-(Methoxymethoxy)-3-(prop-2-yn-1-yloxy)benzyl (4-(3-(4-cyano-3-(trifluoromethyl)-phenyl)-5,5-dimethyl-4-oxo-2-thioxoimidazolidin-1-yl)-2-fluorobenzoyl)(methyl)-carbamate]
- free Enzalutamide 9 detected at pH 4.5 ([1]; pH 4.5, 48 h, 37 °C): 40%
- peak intensity of the conjugate at pH 4.5 [1]: decreased
- amide 9 released at pH 5.5 ([1]; pH 5.5, after 48 h at 37 °C): only a small amount
- stability in solution at pH 7.4 [2]: stable

Compound: C#CCOc1cc(COC(=O)N(C[C@H]2CN(c3ccc(N4CCOCC4)c(F)c3)C(=O)O2)C(C)=O)cc2c1OC(OCC)O2 (stereo partly drawn) [Compound 15, (2-Ethoxy-7-(prop-2-yn-1-yloxy)benzo[d][1,3]dioxol-5-yl)methyl acetyl(((R)-3-(3-fluoro-4-morpholinophenyl)-2-oxooxazolidin-5-yl)methyl)carbamate]
- Plasma, percentage of unmodified compound [3]: 95%
- half-life at 100 µM [3]: > 24 h
- H2O, percentage of unmodified compound (Stability test in water): 99%
- half-life (Stability test in water): > 48 h
- pH 7.4, percentage of unmodified compound [2]: 94%
- pH 7.4, t1/2 [2]: > 48 h

Compound: C#CCOc1cc(COC(=O)N(C)C(=O)c2ccc(N3C(=S)N(c4ccc(C#N)c(C(F)(F)F)c4)C(=O)C3(C)C)cc2F)cc2c1OC(OCC)O2 (stereo not shown) [Compound 16, (2-Ethoxy-7-(prop-2-yn-1-yloxy)benzo[d][1,3]dioxol-5-yl)methyl (4-(3-(4-cyano-3-(trifluoromethyl)phenyl)-5,5-dimethyl-4-oxo-2-thioxoimidazolidin-1-yl)-2-fluorobenzoyl)(methyl)carbamate]
- Plasma, percentage of unmodified compound [3]: 89%
- half-life at 100 µM [3]: > 24 h
- H2O, percentage of unmodified compound (Stability test in water): 99%
- half-life (Stability test in water): > 48 h
- pH 7.4, percentage of unmodified compound [2]: 95%
- pH 7.4, t1/2 [2]: > 48 h
